Measured values from patent publication US20170368031A1, “SOLID DISPERSION FORMULATIONS OF ANTIVIRAL COMPOUNDS” (Merck Sharp & Dohme Corp., priority 2014, published 2017).

Legend:
[1] = Human clinical biocomparison study: oral absorption of Formulation 1 with and without pH-raising medication; conditions: in vivo, 100 mg, healthy subjects
Description: FIG. 1 outlines the process used to make Formulation 1.
The oral absorption obtained from Formulation 1 with and without pH-modifying medications was evaluated as part of human clinical study. Formulation 1 was dosed by itself (Treatment 1) and in the presence of a medication that raises gastric pH (Treatment 2).

[2] = Human clinical biocomparison study: oral absorption from grazoprevir and Formulation 3 with and without pH-raising medication; conditions: in vivo, 100 mg grazoprevir/50 mg Compound I, healthy subjects
Description: The Formulation 2 spray dried intermediate was blended and roller compacted along with microcrystalline cellulose, lactose, croscarmellose sodium, sodium chloride, colloidal silicon dioxide, and magnesium stearate. Only half of the magnesium stearate was added prior to roller compaction. The second half of the magnesium stearate and the remaining croscarmellose sodium was added after roller compaction and the resulting powder mix was blended further.
The oral absorption obtained from grazoprevir and Formulation 3 with (Treatment 2) and without (Treatment 1) co-administration of a pH-raising medication was evaluated as part of human clinical study.

[3] = Treatment 1: Formulation 1 dosed by itself
[4] = Treatment 1: grazoprevir and Formulation 3 without pH-raising medication

- AUC(0-inf) [1, 3]: 3.77 µM·h
- Cmax [1, 3]: 216 nM
- AUC(0-inf) ([1]; Treatment 2: Formulation 1 with pH-raising medication): 1.57 µM·h
- AUC(0-inf) [2, 4]: 1.97 µM·h
- Cmax [2, 4]: 102 nM
- AUC(0-inf) ([2]; Treatment 2: grazoprevir and Formulation 3 with pH-raising medication): 1.79 µM·h
Structure (SMILES): COC(=O)N[C@H](C(=O)N1CCC[C@H]1c1nc(-c2ccc3c(c2)O[C@@H](c2ccccc2)n2c-3cc3cc(-c4c[nH]c([C@@H]5CCCN5C(=O)[C@@H](NC(=O)OC)C(C)C)n4)ccc32)c[nH]1)C(C)C [Compound I, dimethyl N,N′-([(6S)-6-phenylindolo[1,2-c][1,3]benzoxazine-3,10-diyl]bis {1H-imidazole-5,2-diyl-(2S)-pyrrolidine-2,1-diyl[(2S)-3-methyl-l-oxobutane-1,2-diyl]})dicarbamate]
